Measured values reported in patent US4632922A, “Oxomorpholinyl dimer and rescue of anthracycline and mitomycin C damage” (The United States of America as represented by the …, priority 1985, dated 1986).

How the values were obtained:
[1] = Kinetics of reaction of DHM3 with daunorubicin in water solvent
Description: A test similar to that described for the same reaction in methanol solvent (vide supra) was run. Oxomorpholinyl dimer DHM3 (1.38 mg, 4.37×10^-3 mmol) was dissolved in 0.5 ml of oxygen-free methanol and quickly transferred without delay into one compartment of the cell. The solvent was promptly removed under vacuum. Daunorubicin hydrochloride ([…]) was dissolved in 100 ml of an aqueous solution of Tris (24.2 mg) and Tris hydrochloride (31.6 mg) and 2.6 ml of this solution (4.18×10^-4 mmol of 6) was introduced into the other compartment of the cell. The sample was freeze-thaw degassed over three cycles as described above, sealed, and placed in a thermostatted cell holder at 10.0±0.1° C. for about 20 min prior to mixing. Full spectra between 320 and 800 nm were recorded every 10 sec for the first 125 sec, and then every 20 sec. From the absorbance change at 620 nm over the first 85 sec (50% reaction of daunorubicin), a non-linear least-squares treatment gave a first order rate constant for bond homolysis of DHM3 (k1) equal to 6×10^-4 sec^-1 and a first order rate constant for destruction of 7 (k2) equal to 2×10^-2 sec^-1. Treatment of the data obtained in the 164-225 sec interval gave k2 =2.8×10^-2 sec^-1.
Thus, when a ten-fold excess of DHM3 is reacted with an oxygen-free 2×10^-4 M solution of 6 in buffered water (pH8) at 10° C., the absorbance of the solution at 618-620 nm, due to the tautomer 7, reaches its maximum after 125 sec and then decreases quickly, with an 80% decrease in 100 sec. Here again the formation and destruction of 7, as calculated from the data obtained in the first 85 sec of reaction, follows consecutive first order kinetics, first order in DHM3 and 7, with k1 =6×10^-4 sec^-1, k2 =2×10^-2 sec^-1 and ε7 =9600. Calculation of k2 from the absorbance data taken after 165 sec of reaction time, when only first order destruction of 7 is observed, gives a value of 2.8×10^-2 sec^-1.

[2] = tested on: DOX-induced skin ulceration; test: Rescue by DHM3 of DOX-induced skin necrosis (ulceration, induration) in swine; assay type: in vivo, miniature white swine
Description: In order to produce anthracycline induced tissue damage, clinical grade doxorubicin (DOX) hydrochloride was obtained as a representative anthracycline chemical from the Drug Synthesis Branch, Developmental Therapeutics Program, National Cancer Institute. Each vial contained 10 mg DOX hydrochloride and 50 mg lactose which was reconstituted with 5.0 ml sterile 0.9% NaCl solution to give a final drug concentration of 2.0 mg/ml. DHM3 solution was prepared by dissolving 10 mg in ice-cold water which had been purged with N2 gas for 5 minutes. Dissolution was facilitated by brief sonication to give a final concentration of 10 mg/ml. The solution was kept cold (≈4° C.) and protected from air and light.
Female weanling miniature white swine weighing approximately 12 kg were obtained from the Veterinary Resources Branch, National Institutes of Health. The development of this strain of swine has been described previously (Sachs, et al., Transplantation 22:559-567, 1976). Each animal was housed in a 6×4 ft metabolic cage and was fed standard NIH show chow, 1.5 lbs twice daily.
Each animal was anesthesized by intramuscular injections of ketamine, 20 mg/kg, xylazine, 20 mg/kg, and atropine, 1.0 mg. Following endotracheal intubation anesthesia was maintained with a mixture of nitrous oxide, halothane, and oxygen gas.
DOX HCl (2.0 mg/ml) was administered intradermally (i.d.) with a 25 gauge needle inserted approximately 4 to 5 mm into the skin. Following the injection of 0.5, 0.75 or 1.0 ml (1.0, 1.5, or 2.0 mg, respectively) DOX solution, the syringe was removed from the hub leaving the needle in place. After the indicated time interval, 1.0 ml (10 mg) DHM3 was injected through the same needle and the needle was then removed. Control sites received 1.0 ml sterile water instead of DHM3. The injection sites were along the mid-lateral aspect of each side of the swine and were 4-5 cm apart (6-8 injection sites per side). One animal was used for a dose experiment where DOX, 0.5 ml/site was injected along one side and 1.0 ml/site was injected along the contralateral side. Fifteen minutes later, DHM3 or water was injected into alternating sites as described above. A second animal received DOX, 0.75 ml/site along both sides. DHM3 or water was injected into alternating sites at times varying from 5 to 120 minutes following DOX administration.
All lesions were measured by a single observer with metric calipers three times weekly for two weeks, followed by weekly measurements thereafter. The areas of skin ulceration and induration were estimated by the product of the cross perpendicular diameters. The total toxicity of DOX-induced skin ulceration was determined by calculating the area under the ulceration-time curve (AUC) in mm^2 -days.
In order to assess the extent of tissue injury following intradermal DOX or DHM3, incisional biopsies were performed on representative lesions 6 and 20 days following drug injection. These samples were placed in 10% buffered formalin and processed for examination by standard light microscopy (Pathco Inc., Potomac, MD.).

[3] = DHM3 10 mg 15 min after DOX 2.0 mg i.d.

For `CC1(CO)COC(=O)C(C)(C2(C)NC(C)(CO)COC2=O)N1` (centres unmarked) [DHM3, bi(3,5-dimethyl-5-hydroxymethyl-2-oxomorpholin-3-yl)], the “reactivity with daunorubicin compared with TM-3” value ([1]; DHM3 in water vs TM-3 in methanol) was “approximately the same reactivity”, the “first order rate constant for bond homolysis of DHM3 (k1)” value ([1]; buffered water (pH8), 10.0±0.1° C., first 85 sec) was 0.0006 s⁻¹ and the “extent of skin necrosis” value [2, 3] was “greatly reduced”. The “reduction of peak area size of the ulcer” value [2, 3] was 80%, the “time to complete healing” value ([2]; DHM3 10 mg 15 min after DOX 2.0 mg, control 7 weeks) was no more than 5 weeks and the “AUC (total toxicity of skin ulceration)” value ([2]; DHM3 10 mg i.d. 5 min after DOX 1.5 mg i.d.) was 960 mm^2 . days. The “AUC (total toxicity of skin ulceration)” value ([2]; DHM3 10 mg i.d. 15 min after DOX 1.0 mg i.d., mean of 3 lesions, p < .005) was 840 ± 420 mm^2 . days, the “AUC (total toxicity of skin ulceration)” value ([2]; DHM3 10 mg i.d. 15 min after DOX 1.5 mg i.d.) was 2220 mm^2 . days and the “AUC (total toxicity of skin ulceration)” value ([2]; DHM3 10 mg i.d. 15 min after DOX 2.0 mg i.d., mean of 3 lesions, p < .001) was 1020 ± 420 mm^2 . days. For the same compound, the “AUC (total toxicity of skin ulceration)” value ([2]; DHM3 10 mg i.d. 30 min after DOX 1.5 mg i.d.) was 3240 mm^2 . days, the “AUC (total toxicity of skin ulceration)” value ([2]; DHM3 10 mg i.d. 60 min after DOX 1.5 mg i.d.) was 4020 mm^2 . days and the “AUC (total toxicity of skin ulceration)” value ([2]; DHM3 10 mg i.d. 90 min after DOX 1.5 mg i.d.) was 5340 mm^2 . days. The “AUC (total toxicity of skin ulceration)” value ([2]; DHM3 10 mg i.d. 120 min after DOX 1.5 mg i.d.) was 8400 mm^2 . days, the “protection against DOX injury” value ([2]; DHM3 5 min after DOX) was “Optimal protection” and the “reduction of the size of surrounding induration” value ([2]; DHM3 after DOX) was “observed to parallel the ulcer measurements”. The “color change of stained skin” value ([2]; DHM3 injected into DOX site) was “immediately changed to a rusty brown”, the “reduction of DOX induced injury” value ([2]; DOX 1.0 mg, compared with 2.0 mg) was “similar” and the “protection against DOX injury” value ([2]; interval greater than 60 min) was “no protection is observed”. The “protection against DOX injury” value ([2]; interval increased to 60 min) was “Progressively less protection” and the “protection from skin necrosis (maximal ulcer area and time required for healing)” value ([2]; up to 60 min after i.d. DOX) was “considerable protection”.
